Assays:
Format in all cases: biochemical
wildtype K-Ras = molecular target: T1, wildtype K-Ras (Homo sapiens, UniProt P01116); experiment: PPI-HTRF assay, wildtype K-Ras / SOS1 interaction; conditions: HTRF, K-Ras wt; read-out: PPI-HTRF-5 nM (K-Ras wt IC50)
T1 construct: made in house; host or cells: E. coli, e.g. BL21 (DE3)
From the text: (§1) This assay can be also used to assess a selective inhibition or reduction of signaling output of a mutant Ras protein relative to a wildtype, or relative to a different mutant Ras protein. For example, the equilibrium interaction of wildtype Kras or K-Ras mutant (e.g., wildtype or a mutant thereof) with SOS1 (e.g., hSOS1) can be assessed as a proxy or an indication for a subject compound's ability to bind and inhibit Ras protein. HTRF assay detects from (i) a fluorescence resonance energy transfer (FRET) donor (e.g., antiGST-Europium) that is bound to GST-tagged K-Ras mutant to (ii) a FRET acceptor (e.g., anti-6His-XL665) bound to a His-tagged hSOS1.
(§2) The assay buffer can contain ˜5 mM HEPES pH 7.4, ˜150 mM NaCl, ˜1 mM DTT, 0.05% BSA and 0.0025% (v/v) Igepal. A Ras working solution is prepared in an assay buffer containing typically a suitable amount of the protein construct (e.g., GST-tagged K-Ras mutant) and the FRET donor (e.g., antiGST-Eu(K) from Cisbio, France). A SOS1 working solution is prepared in an assay buffer containing suitable amount of the protein construct (e.g., His-hSOS1) and the FRET acceptor (e.g., anti-6His-XL665 from Cisbio, France). A suitable amount of the protein construct will depend on the range of activity or range of IC50 values being detected or under investigation. For detecting IC50 within a range of 500 nM, the protein constructs of the same range of molarity can be utilized.
(§3) A fixed volume of DMSO with or without test compound is transferred into a 384-well plate. Ras working solution is added to all wells of the test plate. SOS1 working solution is added to all wells except for those that are subsequently filled the inhibitor control solution. Upon incubation for about 10 minutes or longer, the fluorescence is measured with a M1000Pro plate reader (Tecan) using HTRF detection (excitation 337 nm, emission 1: 620 nm, emission 2: 665 nm). Compounds are tested in duplicate at different concentrations (for example, 10 μM, 2.5 μM, 0.63 μM, 0.16 μM, 0.04 μM, 0.01 μM test compound). The ratiometric data (i.e., emission 2 divided by emission 1) is used to calculate IC50 values against Ras using GraphPad Prism (GraphPad software). Following this general procedure, samples are tested with or without a subject compound disclosed herein including compounds exemplified in Table 1 to assess their abilities to inhibit a mutant K-Ras relative to another K-Ras (e.g., different mutant or wildtype). Signaling output measured in terms of IC50 values can be obtained, a ratio of IC50 against one mutant relative to another mutant can be calculated. For instance, a selective reduction of K-Ras G12D signaling output can be evidenced by a ratio greater than one. In particular, a selective reduction of K-Ras G12D signaling relative to K-Ras WT signaling is evidenced if the ratio of IC50 (against K-Ras WT) to IC50 (against K-Ras G12D) is greater than 1.

K-Ras G12S = molecular target: T2, K-Ras G12S (Homo sapiens, UniProt P01116, G12S); experiment: PPI-HTRF assay, K-Ras G12S / SOS1 interaction; conditions: read-out: PPI-HTRF-5 nM (K-Ras G12S IC50)
T2 construct: made in house; host or cells: E. coli, e.g. BL21 (DE3)
From the text: as §1, §2, §3

K-Ras G12V = molecular target: T3, K-Ras G12V (Homo sapiens, UniProt P01116, G12V); experiment: PPI-HTRF assay, K-Ras G12V / SOS1 interaction; conditions: HTRF, K-Ras G12V; read-out: PPI-HTRF-5 nM (K-Ras G12V IC50)
T3 construct: made in house; host or cells: E. coli, e.g. BL21 (DE3)
From the text: as §1, §2, §3

K-Ras G12D = molecular target: T4, K-Ras G12D (Homo sapiens, UniProt P01116, G12D); experiment: PPI-HTRF assay, K-Ras G12D / SOS1 interaction; conditions: HTRF, K-Ras G12D; read-out: PPI-HTRF-5 nM (K-Ras G12D IC50)
T4 construct: made in house; host or cells: E. coli, e.g. BL21 (DE3)
From the text: as §1, §2, §3

T4 sequence (P01116 1-188 isoform P01116-2 G12D): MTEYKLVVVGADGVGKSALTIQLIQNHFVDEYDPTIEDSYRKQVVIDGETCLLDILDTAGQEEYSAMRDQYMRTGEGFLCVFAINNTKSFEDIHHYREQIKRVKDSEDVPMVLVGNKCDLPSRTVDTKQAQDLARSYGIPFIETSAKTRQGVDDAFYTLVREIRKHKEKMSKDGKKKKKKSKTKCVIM
T3 sequence (P01116 1-188 isoform P01116-2 G12V): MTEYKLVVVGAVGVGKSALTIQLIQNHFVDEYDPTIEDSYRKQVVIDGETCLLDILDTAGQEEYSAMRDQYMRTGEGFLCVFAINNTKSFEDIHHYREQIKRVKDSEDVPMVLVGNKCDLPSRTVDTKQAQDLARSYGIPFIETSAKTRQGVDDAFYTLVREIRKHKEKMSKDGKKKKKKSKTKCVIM
T1 sequence (P01116 1-188 isoform P01116-2): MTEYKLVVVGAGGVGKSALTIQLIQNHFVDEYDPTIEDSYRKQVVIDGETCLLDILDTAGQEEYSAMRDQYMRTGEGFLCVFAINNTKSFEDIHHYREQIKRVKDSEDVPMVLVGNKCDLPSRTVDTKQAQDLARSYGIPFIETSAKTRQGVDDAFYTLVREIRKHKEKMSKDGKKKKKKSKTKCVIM
T2 sequence (P01116 1-188 isoform P01116-2 G12S): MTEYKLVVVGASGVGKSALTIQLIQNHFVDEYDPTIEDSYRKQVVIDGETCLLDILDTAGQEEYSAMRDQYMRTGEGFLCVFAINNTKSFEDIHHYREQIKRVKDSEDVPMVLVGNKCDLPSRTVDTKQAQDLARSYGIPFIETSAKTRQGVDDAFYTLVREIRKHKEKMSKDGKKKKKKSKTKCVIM

Row | Structure (SMILES) | IC50 (wildtype K-Ras) | IC50 (K-Ras G12S) | IC50 (K-Ras G12V) | IC50 (K-Ras G12D)
1 | CN1c2nc(OC[C@@]34CCCN3C[C@H](F)C4)nc3c(F)c(-c4ccc(F)c5sc(N)c(C#N)c45)c(Cl)c(c23)OCC2OCCCC21 (stereo partly drawn) [compound 199, 2-amino-4-(6-chloro-4-fluoro-2-(((2R,7aS)-2-fluorotetrahydro-1H-pyrrolizin-7a(5H)-yl)methoxy)-13-methyl-8,8a,11,12,12a,13-hexahydro-10H-pyrano[3′,2′:6,7][1,5]oxazocino[4,3,2-de]quinazolin-5-yl)-7-fluorobenzo[b]thiophene-3-carbonitrile] | < 5 µM | < 5 µM | < 5 µM | < 5 µM
2 | COCCN1c2nc(OC[C@@]34CCCN3C[C@H](F)C4)nc3c(F)c(-c4ccc(F)c5sc(N)c(C#N)c45)c(Cl)c(c23)OCC2COCC21 (stereo partly drawn) [compound 163, 2-amino-4-(6-chloro-4-fluoro-2-(((2R,7aS)-2-fluorotetrahydro-1H-pyrrolizin-7a(5H)-yl)methoxy)-12-(2-methoxyethyl)-8a,9,11a,12-tetrahydro-8H,11H-furo[3′,4′:6,7][1,5]oxazocino[4,3,2-de]quinazolin-5-yl)-7-fluorobenzo[b]thiophene-3-carbonitrile] | < 5 µM | < 5 µM | < 5 µM | < 5 µM
3 | CN1c2nc(OC[C@@]34CCCN3C[C@H](F)C4)nc3c(F)c(-c4ccc(F)c5sc(N)c(C#N)c45)c(Cl)c(c23)OC2CN(C(=O)C(F)F)CC21 (stereo partly drawn) [compound 147, 2-amino-4-(6-chloro-9-(2,2-difluoroacetyl)-4-fluoro-2-(((2R,7aS)-2-fluorotetrahydro-1H-pyrrolizin-7a(5H)-yl)methoxy)-11-methyl-7a,8,9,10,10a,11-hexahydropyrrolo[3′,4′:2,3][1,4]oxazepino [5,6,7-de]quinazolin-5-yl)-7-fluorobenzo[b]thiophene-3-carbonitrile] | < 5 µM | < 5 µM | < 5 µM | < 5 µM
4 | N#Cc1c(N)sc2c(F)ccc(-c3c(Cl)c4c5c(nc(OC[C@@]67CCCN6C[C@H](F)C7)nc5c3F)N3C[C@H](N)C[C@H]3CO4)c12 [compound 195, 2-amino-4-((8aS,10R)-10-amino-6-chloro-4-fluoro-2-(((2R,7aS)-2-fluorotetrahydro-1H-pyrrolizin-7a(5H)-yl)methoxy)-8a,9,10,11-tetrahydro-8H-pyrrolo[2′,1′:3,4][1,4]oxazepino[5,6,7-de]quinazolin-5-yl)-7-fluorobenzo[b]thiophene-3-carbonitrile] | < 5 µM | < 5 µM | < 5 µM | < 5 µM
5 | CCN[C@@H]1CC[C@H]2COc3c(Cl)c(-c4ccc(F)c5sc(N)c(C#N)c45)c(F)c4nc(OC[C@@]56CCCN5C[C@H](F)C6)nc(c34)N2C1 [compound 119, 2-amino-4-((5aS,8R)-3-chloro-8-(ethylamino)-1-fluoro-12-(((2R,7aS)-2-fluorotetrahydro-1H-pyrrolizin-7a(5H)-yl)methoxy)-5,5a,6,7,8,9-hexahydropyrido[2′,1′:3,4][1,4]oxazepino [5,6,7-de]quinazolin-2-yl)-7-fluorobenzo[b]thiophene-3-carbonitrile] | < 5 µM | < 5 µM | < 5 µM | < 5 µM
6 | CN1c2nc(OC[C@@]34CCCN3C[C@H](F)C4)nc3c(F)c(-c4ccc(F)c5sc(N)c(C#N)c45)c(Cl)c(c23)OCC2CCCC21 (stereo partly drawn) [compound 165, 2-amino-4-(6-chloro-4-fluoro-2-(((2R,7aS)-2-fluorotetrahydro-1H-pyrrolizin-7a(5H)-yl)methoxy)-12-methyl-8a,9,10,11,11a,12-hexahydro-8H-cyclopenta[6,7][1,5]oxazocino[4,3,2-de]quinazolin-5-yl)-7-fluorobenzo[b]thiophene-3-carbonitrile] | – | – | – | < 5 µM
7 | CC(C)C1NCC12CC[C@H]1COc3c(Cl)c(-c4ccc(F)c5sc(N)c(C#N)c45)c(F)c4nc(OC[C@@]56CCCN5C[C@H](F)C6)nc(c34)N1C2 (single isomer, unassigned) [compound 130] | < 5 µM | < 5 µM | < 5 µM | –
8 | CN1c2nc(OC[C@@]34CCCN3C[C@H](F)C4)nc3c(F)c(-c4ccc(F)c5sc(N)c(C#N)c45)c(Cl)c(c23)OC2COCC21 (stereo partly drawn) [compound 166, 2-amino-4-(6-chloro-4-fluoro-2-(((2R,7aS)-2-fluorotetrahydro-1H-pyrrolizin-7a(5H)-yl)methoxy)-11-methyl-7a,8,10a,11-tetrahydro-10H-furo[3′,4′:2,3][1,4]oxazepino[5,6,7-de]quinazolin-5-yl)-7-fluorobenzo[b]thiophene-3-carbonitrile] | < 5 µM | < 5 µM | < 5 µM | < 5 µM
9 | N#Cc1c(N)sc2c(F)ccc(-c3c(Cl)c4c5c(nc(OC[C@@]67CCCN6C[C@H](F)C7)nc5c3F)N(CC(F)F)C3CN(C=O)CC3O4)c12 (stereo partly drawn) [compound 201, 2-amino-4-(6-chloro-11-(2,2-difluoroethyl)-4-fluoro-2-(((2R,7aS)-2-fluorotetrahydro-1H-pyrrolizin-7a(5H)-yl)methoxy)-9-formyl-7a,8,9,10,10a,11-hexahydropyrrolo[3′,4′:2,3][1,4]oxazepino [5,6,7-de]quinazolin-5-yl)-7-fluorobenzo[b]thiophene-3-carbonitrile] | < 5 µM | < 5 µM | < 5 µM | < 5 µM
10 | CC(C)C1NCC12CC[C@H]1COc3c(Cl)c(-c4ccc(F)c5sc(N)c(C#N)c45)c(F)c4nc(OC[C@@]56CCCN5C[C@H](F)C6)nc(c34)N1C2 (single isomer, unassigned) [compound 179] | – | > 5 µM | – | < 5 µM

The next lines start with the values.

Row | IC50 (wildtype K-Ras) | IC50 (K-Ras G12S) | IC50 (K-Ras G12V) | IC50 (K-Ras G12D) | Structure (SMILES)
11 | – | – | – | < 5 µM | CC(O)C1C[C@H]2CCCN2c2nc(OC[C@@]34CCCN3C[C@H](F)C4)nc3c(F)c(-c4ccc(F)c5sc(N)c(C#N)c45)c(Cl)c(c23)O1 (single isomer, unassigned) [compound 160]
12 | < 5 µM | < 5 µM | < 5 µM | < 5 µM | N#Cc1c(N)sc2c(F)ccc(-c3c(Cl)c4c5c(nc(OC[C@@]67CCCN6C[C@H](F)C7)nc5c3F)N3CCC(C(F)F)CC3CO4)c12 (stereo partly drawn) [compound 194, 2-amino-4-(6-chloro-10-(difluoromethyl)-4-fluoro-2-(((2R,7aS)-2-fluorotetrahydro-1H-pyrrolizin-7a(5H)-yl)methoxy)-8,8a,9,10,11,12-hexahydropyrido[2′,1′:3,4][1,4]oxazepino [5,6,7-de]quinazolin-5-yl)-7-fluorobenzo[b]thiophene-3-carbonitrile]
13 | < 5 µM | < 5 µM | < 5 µM | < 5 µM | N#Cc1c(N)sc2c(F)ccc(-c3c(Cl)c4c5c(nc(OCC67CCCN6C[C@H](F)C7)nc5c3F)N3CCC(OC(F)F)CC3CO4)c12 (single isomer, unassigned) [compound 118]
14 | < 5 µM | < 5 µM | < 5 µM | – | CC(O)C1C[C@H]2CCCN2c2nc(OC[C@@]34CCCN3C[C@H](F)C4)nc3c(F)c(-c4ccc(F)c5sc(N)c(C#N)c45)c(Cl)c(c23)O1 (single isomer, unassigned) [compound 122]
15 | < 5 µM | < 5 µM | < 5 µM | – | N#Cc1c(N)sc2c(F)ccc(-c3c(Cl)c4c5c(nc(OC[C@@]67CCCN6C[C@H](F)C7)nc5c3F)N3CCC[C@@H]3CC(C(F)F)O4)c12 (single isomer, unassigned) [compound 123]
